Laboratory results published in US7838464B2, “Method for yield improvement in glyphosate-resistent legumes” (priority 2002, dated 2010).

Test system: soya variety NIDERA AX 4910
Test: Field experiments: yield of glyphosate-resistant soya after foliar treatment
Assay type: in vivo
Procedure: The results shown hereinbelow were obtained in experiments in the, open which were carried out during the […] season in the Argentinian northern pampas. The plots used were arranged randomly relative to one another. Each treatment variant was replicated-four times. The crop plant used was the soya variety NIDERA AX 4910, which is resistant to numerous fungal diseases and to the herbicide glyphosate.
In all 5 experiments, two foliar treatments with glyphosate were carried out 30 or 60 days after planting the soya seeds, using equipment conventionally used under practice conditions. In the experiments 2 and 3, pyraclostrobin was added at “30 days after planting”, while pyraclostrobin was added at “60 days after planting” in the experiments 4 and 5.

Compound | Yield (experiment 1: glyphosate 360 g a.s./ha at 30 and at 60 days after planting, no pyraclostrobin, open field, 4 replicates) [%] | yield in comparison with the conventional use of glyphosate alone (addition of pyraclostrobin 50 or 100 g a.s./ha to glyphosate at early (30 days) and late (60 days) treatment times)
O=C(O)CNCP(=O)(O)O [glyphosate, N-(phosphonomethyl)glycine] | 100 | –
pyraclostrobin | – | markedly increased the yield
